Holding throughout (format): cell-based
Data set [1] has as its system RAW 264.7 (mouse macrophage cell line). The data set is described as follows: MTS assay (cytotoxicity), Pentablock Polymer A protocol. The note with it: RAW 264.7, Triton X control; blank = 100. On the procedure:
(§1) The cytotoxicity and biocompatibility of the Pentablock Polymer A and Pentablock Polymer B were investigated in several cell lines. ARPE-19 (human retinal pigment epithelial cell line), SIRC (rabbit corneal cell line), and RAW 264.7 (mouse macrophage cell line) were obtained from American Type Culture Collection ("ATCC"). ARPE-19 cells were cultured in Dubelcco's modified Eagle's medium ("DMEM/F12") supplemented with 10% fetal bovine serum ("FBS"), 100 U/mL penicillin and 100 µg/mL of streptomycin. SIRC cells were cultured in minimum essential medium ("MEM") and supplemented with 10% FBS, 100 U/mL of penicillin and 100 µg/mL of streptomycin. RAW 264.7 (Mouse macrophage cells) cells were cultured in DMEM/F12supplemented with 10% FBS, 10% of nonessential amino acids, 100 U/mL penicillin and 100 µg/mL of streptomycin. The pH of the medium was adjusted to 7.4 and cells were incubated in humidified atmosphere at 37 °C temperature with 5% CO2 environment. The cell cultures were exposed directly to different concentrations of Pentablock Polymer A and Pentablock Polymer B. […]
(§2) MTS assay is based on the reduction of the tetrazolium salt (yellow) to fromazone (purple) by mitochondrial enzymes of metabolic active cells. […] After incubation, the absorbance of each well was measured at 450 nm by ELISA plate reader. The absorbance is directly proportional to viability of cells. […]

In data set [2] the test system is SIRC (rabbit corneal cell line). The description is as above. The note with it: Triton X control, blank = 100. As to the method: as §1, §2
The subject of data set [3] is ARPE-19 (human retinal pigment epithelial cell line). The experiment in a line: MTS assay (cytotoxicity), Pentablock Polymer B protocol. The note with it: ARPE 19, Triton X control; blank = 100. As to the method:
as §1, §2
Background: Formazan colour is commonly taken as a measure of viable cells.

A further data set has as its system PCEC. The data set is described as above. The note with it: Triton X control, blank = 100. As to the method: Pentablock Polymer B: Cytotoxicity for Pentablock Polymer B was performed at different concentration ranging from 0.5-10 mg/ml. The plates were seeded with cell density of 10,000 cells/100 µL. After 24 hours of incubation fresh medium containing hydrogel of different concentration ranging from 0.5-10 mg/ml were added and further incubated for 24 hours. MTS assay is based on the reduction of the tetrazolium salt (yellow) to fromazone (purple) by mitochondrial enzymes of metabolic active cells. The amount of the fromazone is directly proportional to viable cells. In MTS assay Trioton X treated cells were served as negative control and untreated cells served as positive control. Then, 100 µL of serum free medium containing 20 µL of MTS solution was added to the 96 well plates, and these plates were incubated at 37 °C and 5% CO2 for 4 hours. After incubation, the absorbance of each well was measured at 450 nm by ELISA plate reader. The absorbance is directly proportional to viability of cells. Table 1: MTS assay on Pentablock Polymer A

As to Triton X, the MTS assay in data set [1] was determined as 0 ± 0.594; in data set [2] it was 0 ± 0.271; in data set [3] it was 0.000 ± 0.491; with PCEC it was 0.000 ± 1.099.

Values taken from patent EP2766407B1, “PENTABLOCK POLYMERS” (The Curators Of The University Of Missouri, priority 2011, dated 2013).
